# Measured values: patent US20190358176A1, “METHODS OF SENSITIZING CANCER CELLS TO IMMUNE CELL KILLING” (University of Pittsburgh - of the Commonwealth System of …, priority 2017, published 2019)
# What was measured:
# [1] = system: MDA-MB-231 cells; assay: HCA of cell motility and cytotoxicity (Oris Pro 384 cell migration plate); assay type: cell-based, human; details: 48 hours, at antimigratory concentrations
# Description: HCA of cell motility and cytotoxicity was performed essentially as described (51). MDA-MB-231 cells (15,000/well) were plated in collagen-coated Oris™ Pro 384-well microplates (Platypus Technologies cat # PRO384CMACCS) containing a chemical exclusion zone that dissolves upon cell seeding. Two hours after plating, medium was removed, and cells treated with ten-point, two-fold concentration gradients of test agents. Forty-eight hours after treatment, cells were stained with 10 μg/ml Hoechst 33342 and 1 μg/ml PI in HBSS for 15 min at 37° C. Plates were washed once with PBS and scanned live on the ArrayScan II using a 5× objective. To capture cells that had entered into the exclusion zone, a single field was acquired in the center of the well and nuclei therein enumerated. To assess changes in cell loss, nuclear size, and necrotic cell death, a second scan was performed that captured one field at the edge of the well (51). Parameters exported and plotted were SelectedObjectCountPerValidField (cell density), MEAN ObjectAreaCh1 (nucleus size), and % RESPONDER MeanAvgIntenCh2 (percent PI positive cells based on based on a threshold set with vehicle treated cells).
# [2] = system: rat hepatocytes; assay: ROS generation in hepatocytes (DHE staining); assay type: cell-based
# Description: Cells were cultured as above and labeled four hours following drug addition with 4 μM DHE for 2 hours. Hoechst 33342 was added to a 4 μg/ml final concentration during the final hour of incubation. In the presence of ROS, DHE is oxidized to a red fluorescent dye (oxyethidium). Cells were imaged as above and the percentage of oxyethidium-nuclear positive cells calculated based on a threshold set with vehicle treated cells.
# [3] = system: zebrafish embryos; assay: ROS generation in zebrafish embryos (DHE); assay type: in vivo; details: developing zebrafish embryos, 48 hpf
# Description: All procedures involving zebrafish were reviewed and approved by the University of Pittsburgh Institutional Animal Care and Use Committee. Wildtype AB* embryos were kept in E3 medium (5 mM NaCl, 0.17 mM KCl, 0.33 mM CaCl2, 0.33 mM MgSO4). At 48 hours post fertilization (hpf), embryos were arrayed into the wells of a 96 well microplate and treated with vehicle (0.5% DMSO) or test agents. After a 30-min pre-incubation, embryos were labeled with a solution of 10 μM DHE and 40 μg/mL MS222 (tricaine methanesulfonate, Sigma) in E3 to restrict movement during imaging. Six hours after DHE loading, embryos were imaged on an ArrayScan II using a 2.5× objective. Images were analyzed for oxyethidium fluorescence with the TargetActivation Bioapplication using the MEAN_ObjectAvgIntenCh1 parameter.
# [4] = system: MDA-MB-231 cells; assay: Immune cell killing (sensitization to PBMC-derived LAK); assay type: cell-based, human
# Description: Peripheral blood mononuclear cells were obtained from healthy volunteers with an established IRB approved protocol, separated from heparinized blood on Ficoll-hypaque (GE Healthcare, Chicago) gradients as previously reported (16). Cells were cultured in RPMI 1640 supplemented with 10% FCS, 1% glutamine, 1% penicillin/streptomycin, and stimulated with 6,000 IU of Interleukin 2 for 24 hours. After incubation, cells were washed with PBS and counted. In parallel, MBA-MB-231 cells were pre-treated in a 384 well plate with vehicle or BCI-215 (3 μM). After 24 hours in culture, medium was replaced and PBMC added in two-fold serial dilutions starting with a 50-fold excess of PBMCs in triplicate. After 24 hours of co-culture, cells were fixed with formaldehyde/Hoechst 33342, washed twice with PBS, and imaged on the ArrayScan II. Cancer cells were identified by their larger nuclei compared with PBMC, setting a size gate in the DAPI channel. In experiments with chemotherapeutics, cells carrying a biosensor consisting of a mitochondrial targeting sequence derived from cytochrome c oxidase VIII linked to GFP that is a surrogate for cytochrome c release from mitochondria (17) were pre-treated for 24 hours with cisplatin (2 μM) or doxorubicin (400 nM), exposed to LAK as above, and cancer cells identified and quantified by green fluorescence. Cell densities were normalized to those in the absence of PBMCs. Mean cell densities from multiple independent experiments were averaged and plotted in GraphPad Prism.
# [5] = system: ERK, JNK/SAPK, p38, MEK1 and MKK4/SEK1 phosphorylation; assay: Western blot of MAPK cascade phosphorylation; assay type: cell-based, human; details: 20 μM
smiles,measurement,setting,value
O=C1/C(=C/c2ccccc2)C(NC2CCCCC2)c2cc(Br)ccc21 (centres unmarked) [BCI-215],necrosis (% PI positive cells),[1],no signs of necrosis
same,generation of ROS in hepatocytes (DHE),[2],does not Generate Reactive Oxygen Species
same,generation of ROS in zebrafish embryos (DHE),[3],does not Generate Reactive Oxygen Species
same,difference in killing versus vehicle,[4]; BCI-215 3 μM pre-treatment versus vehicle,well over three log differences in killing
same,LAK number at maximal sensitization,[4]; MDA-MB-231 pre-treated with BCI-215 3 μM for 24 hours,1000 LAK/well
same,sensitization to LAK activity,"[4]; pre-treated 24 hours: BCI-215 3 μM, cisplatin 2 μM, doxorubicin 400 nM",sensitization at lower effector ratios than cisplatin or doxorubicin
same,activation of upstream kinases MEK1 and MKK4/SEK1,"[5]; MDA-MB-231, BT-20 and HeLa, 1 hour",activated MEK1 and MKK4/SEK1
same,"activation (phosphorylation) of ERK, JNK/SAPK and p38",[5]; MDA-MB-231 cells,activated all three kinases
